Assay results reported in ChEMBL document CHEMBL3885861, “Open TG-GATES”.

Species: Rattus norvegicus
Test: Open TG-GATES - Regimen: Single
Format: toxicity, organism-based, Sprague-Dawley
Design: regimen Single, gender Male, age 6 weeks
Conditions: in vivo, po, 60 mg/kg, route gavage, dose level Low; for Bas / Eos / Lym / MCHC / MCV / Mono / Neu / RBC / Ret / WBC: tissue Blood; for KIDNEY_L / KIDNEY_R / KIDNEY_TOTAL: tissue Kidney; for LIVER: tissue Liver; for ALP / AST / CRE / DBIL / GLC / IP / K / LDH / Na / PL / RALB / TBIL / TC / TP / gamma-GTP: tissue Plasma

CS(=O)(=O)O.Cc1ccc(NC(=O)c2ccc(CN3CCN(C)CC3)cc2)cc1Nc1nccc(-c2cccnc2)n1 [IMATINIB MESYLATE]
Bas (3 h): 0% | Eos (3 h): 1% | Lym (3 h): 73.4% | MCHC (3 h): 32.7% | MCV (3 h): 63.2 fL | Mono (3 h): 3% | Neu (3 h): 21.6% | RBC (3 h): 603 x10_4/ul | Ret (3 h): 9.5% | WBC (3 h): 109.9 x10_2/uL | KIDNEY_L (3 h): 0.9 g | KIDNEY_R (3 h): 0.9 g | KIDNEY_TOTAL (3 h): 1.7 g | LIVER (3 h): 9.3 g | ALP (3 h): 1755.4 IU/L | AST (3 h): 81.6 IU/L | CRE (3 h): 0.2 mg/dL | DBIL (3 h): 0.008 mg/dL | GLC (3 h): 187 mg/dL | IP (3 h): 8.6 mg/dL | K (3 h): 4.1 meq/L | LDH (3 h): 243.6 IU/L | Na (3 h): 142.4 meq/L | PL (3 h): 150.2 mg/dL | RALB (3 h): 4 g/dL | TBIL (3 h): 0.03 mg/dL | TC (3 h): 82.8 mg/dL | TP (3 h): 5.5 g/dL | gamma-GTP (3 h): 0.8 IU/L | Bas (6 h): 0% | Eos (6 h): 0.8% | Lym (6 h): 80.6% | MCHC (6 h): 32.8% | MCV (6 h): 63.4 fL | Mono (6 h): 2% | Neu (6 h): 16.2% | RBC (6 h): 618.6 x10_4/ul | Ret (6 h): 9.5% | WBC (6 h): 104.6 x10_2/uL | KIDNEY_L (6 h): 0.9 g | KIDNEY_R (6 h): 0.9 g | KIDNEY_TOTAL (6 h): 1.8 g | LIVER (6 h): 8.4 g | ALP (6 h): 1520 IU/L | AST (6 h): 77.6 IU/L | CRE (6 h): 0.2 mg/dL | DBIL (6 h): 0.008 mg/dL | GLC (6 h): 190.8 mg/dL | IP (6 h): 9.4 mg/dL | K (6 h): 4.2 meq/L | LDH (6 h): 238 IU/L | Na (6 h): 140.7 meq/L | PL (6 h): 152.8 mg/dL | RALB (6 h): 4 g/dL | TBIL (6 h): 0.03 mg/dL | TC (6 h): 82.4 mg/dL | TP (6 h): 5.4 g/dL | gamma-GTP (6 h): 0.7 IU/L | Bas (9 h): 0% | Eos (9 h): 1% | Lym (9 h): 73.8% | MCHC (9 h): 33% | MCV (9 h): 63.2 fL | Mono (9 h): 2.2% | Neu (9 h): 22.6% | RBC (9 h): 613.6 x10_4/ul | Ret (9 h): 8.7% | WBC (9 h): 94.3 x10_2/uL | KIDNEY_L (9 h): 0.8 g | KIDNEY_R (9 h): 0.9 g | KIDNEY_TOTAL (9 h): 1.7 g | LIVER (9 h): 8.2 g | ALP (9 h): 1712.2 IU/L | AST (9 h): 75.4 IU/L | CRE (9 h): 0.2 mg/dL | DBIL (9 h): 0.006 mg/dL | GLC (9 h): 183.2 mg/dL | IP (9 h): 9.4 mg/dL | K (9 h): 4 meq/L | LDH (9 h): 176.4 IU/L | Na (9 h): 140 meq/L | PL (9 h): 137.4 mg/dL | RALB (9 h): 4 g/dL | TBIL (9 h): 0.016 mg/dL | TC (9 h): 77.8 mg/dL | TP (9 h): 5.5 g/dL | gamma-GTP (9 h): 0.7 IU/L | Bas (24 h): 0% | Eos (24 h): 0.6% | Lym (24 h): 85% | MCHC (24 h): 33.1% | MCV (24 h): 64.4 fL | Mono (24 h): 2.4% | Neu (24 h): 11.6% | RBC (24 h): 590.4 x10_4/ul | Ret (24 h): 8.2% | WBC (24 h): 87.7 x10_2/uL | KIDNEY_L (24 h): 0.9 g | KIDNEY_R (24 h): 0.9 g | KIDNEY_TOTAL (24 h): 1.8 g | LIVER (24 h): 10 g | ALP (24 h): 1709.8 IU/L | AST (24 h): 77.2 IU/L | CRE (24 h): 0.2 mg/dL | DBIL (24 h): 0.002 mg/dL | GLC (24 h): 186.4 mg/dL | IP (24 h): 7.6 mg/dL | K (24 h): 4 meq/L | LDH (24 h): 197 IU/L | Na (24 h): 142.7 meq/L | PL (24 h): 162.8 mg/dL | RALB (24 h): 4.1 g/dL | TBIL (24 h): 0.006 mg/dL | TC (24 h): 85.4 mg/dL | TP (24 h): 5.7 g/dL
